Oligonucleotides are written 5' to 3', each unit as a sugar letter and its base; * is a phosphorothioate linkage, no mark a phosphodiester; rarer units and linkages stand in square brackets, end groups in braces. Plain capitals give the bases only. Oligonucleotides are given in HELM: sugar(base)linkage, 5' to 3'; d 2'-deoxyribose, r ribose, m 2'-O-methylribose, p phosphate. ss, as = sense and antisense strand; d = 2'-deoxy (DNA); r = 2'-OH (RNA)

Data set [1] addresses UBE2J1. In words: reporter assay of Huesken 2005. Conditions: siRNA.
Data set [2] deals with Cacnb1 (rat). Put plainly: reporter assay of Huesken 2005. The following applies: siRNA. On the technique in general: Reporter assays use an easily measured gene product as a stand-in for the process of interest.
Note: test concentration or dose not given here.

With “sense rArGrArArGrUrCrArArUrUrCrArUrCrUrGrGrAdTdT / antisense rUrCrCrArGrArUrGrArArUrUrGrArCrUrUrCrUdGdC”, the normalised inhibition (eCFP-eYFP dual reporter) in data set [1] amounted to 79.6%.

For the substance “sense rGrArCrCrArArGrArArGrCrCrArArArGrArArCdTdT / antisense rGrUrUrCrUrUrUrGrGrCrUrUrCrUrUrGrGrUrCdAdG”, in data set [1], the normalised inhibition (eCFP-eYFP dual reporter) was 56.7%.

For the substance “sense rCrUrCrUrUrArUrArUrUrCrCrGrArCrGrArArUdTdT / antisense rArUrUrCrGrUrCrGrGrArArUrArUrArArGrArGdCdT”, the normalised inhibition (eCFP-eYFP dual reporter) in data set [1] is 98.8%.

With “sense rCrArUrCrUrCrArGrGrCrCrArUrCrArUrCrCrUdTdT / antisense rArGrGrArUrGrArUrGrGrCrCrUrGrArGrArUrGdCdT”, the normalised inhibition (eCFP-eYFP dual reporter) in data set [1] amounted to 64.7%.

Turning to “RNA1{r(C)p.r(C)p.r(U)p.r(U)p.r(A)p.r(G)p.r(C)p.r(C)p.r(C)p.r(A)p.r(G)p.r(C)p.r(U)p.r(C)p.r(G)p.r(A)p.r(G)p.r(A)p.r(A)p.d(T)p.d(T)}|RNA2{r(U)p.r(U)p.r(C)p.r(U)p.r(C)p.r(G)p.r(A)p.r(G)p.r(C)p.r(U)p.r(G)p.r(G)p.r(G)p.r(C)p.r(U)p.r(A)p.r(A)p.r(G)p.r(G)p.d(C)p.d(C)}$$$RNA1{StrandType:ss}|RNA2{StrandType:as}$”, in data set [2], the normalised inhibition (eCFP-eYFP dual reporter) is 76.8%.

On to “sense rCrUrGrArCrCrArArGrArArGrCrCrArArArGrAdTdT / antisense rUrCrUrUrUrGrGrCrUrUrCrUrUrGrGrUrCrArGdCdT”, for which, in data set [1], the normalised inhibition (eCFP-eYFP dual reporter) came to 73.1%.

Turning to “sense rArGrGrArCrArGrCrArUrUrArUrUrArGrCrCrAdTdT / antisense rUrGrGrCrUrArArUrArArUrGrCrUrGrUrCrCrUdTdA”, the normalised inhibition (eCFP-eYFP dual reporter) in data set [1] stood at 74.8%.

With “sense rGrCrCrArCrCrArGrArGrUrArUrCrCrCrArUrGdTdT / antisense rCrArUrGrGrGrArUrArCrUrCrUrGrGrUrGrGrCdAdG”, in data set [1], the normalised inhibition (eCFP-eYFP dual reporter) was determined as 53.6%.

Consider “sense rGrArArGrUrCrArArUrUrCrArUrCrUrGrGrArAdTdT / antisense rUrUrCrCrArGrArUrGrArArUrUrGrArCrUrUrCdTdG”, for which the normalised inhibition (eCFP-eYFP dual reporter) in data set [1] turned out to be 75.3%.

For “sense rCrCrGrGrGrCrCrCrArGrCrArGrCrArGrArGrUdTdT / antisense rArCrUrCrUrGrCrUrGrCrUrGrGrGrCrCrCrGrGdCdG”, the normalised inhibition (eCFP-eYFP dual reporter) in data set [1] worked out at 47.4%.

For “sense rUrGrUrCrUrArCrUrUrCrArCrCrArGrArUrGrUdTdT / antisense rArCrArUrCrUrGrGrUrGrArArGrUrArGrArCrAdAdC”, the normalised inhibition (eCFP-eYFP dual reporter) in data set [1] was 73.1%.

“sense rCrArGrArArGrUrCrArArUrUrCrArUrCrUrGrGdTdT / antisense rCrCrArGrArUrGrArArUrUrGrArCrUrUrCrUrGdCdC”: the normalised inhibition (eCFP-eYFP dual reporter) in data set [1] came out at 60.5%.

Consider “sense rUrCrArUrCrArArCrCrUrArCrCrCrArArCrCrUdTdT / antisense rArGrGrUrUrGrGrGrUrArGrGrUrUrGrArUrGrAdAdA”, for which, in data set [1], the normalised inhibition (eCFP-eYFP dual reporter) is 47.9%.

On to “sense rGrArGrCrArUrCrUrCrArGrGrCrCrArUrCrArUdTdT / antisense rArUrGrArUrGrGrCrCrUrGrArGrArUrGrCrUrCdAdA”, for which the normalised inhibition (eCFP-eYFP dual reporter) in data set [1] is 64.1%.

Regarding “sense rCrUrGrArCrUrUrUrGrGrCrArUrUrGrGrCrArGdTdT / antisense rCrUrGrCrCrArArUrGrCrCrArArArGrUrCrArGdGdA”, the normalised inhibition (eCFP-eYFP dual reporter) in data set [1] was found to be 76.4%.

Consider “sense rArCrArArArArGrGrArGrArGrGrGrArGrCrCrAdTdT / antisense rUrGrGrCrUrCrCrCrUrCrUrCrCrUrUrUrUrGrUdTdG”, for which the normalised inhibition (eCFP-eYFP dual reporter) in data set [1] worked out at 41.7%.

As to “sense rGrArGrUrArUrArArGrGrArCrArGrCrArUrUrAdTdT / antisense rUrArArUrGrCrUrGrUrCrCrUrUrArUrArCrUrCdCdA”, the normalised inhibition (eCFP-eYFP dual reporter) in data set [1] was found to be 91.4%.

“sense rGrCrGrCrCrGrGrGrCrCrCrArGrCrArGrCrArGdTdT / antisense rCrUrGrCrUrGrCrUrGrGrGrCrCrCrGrGrCrGrCdTdG”: the normalised inhibition (eCFP-eYFP dual reporter) in data set [1] is 35.3%.

Consider “sense rCrCrCrArArCrCrUrGrUrArGrCrUrArArGrArAdTdT / antisense rUrUrCrUrUrArGrCrUrArCrArGrGrUrUrGrGrGdTdA”, for which the normalised inhibition (eCFP-eYFP dual reporter) in data set [1] was found to be 78.5%.

Consider “sense rUrGrGrCrArArArCrGrArArUrArCrArUrArUrUdTdT / antisense rArArUrArUrGrUrArUrUrCrGrUrUrUrGrCrCrAdGdA”, for which, in data set [1], the normalised inhibition (eCFP-eYFP dual reporter) stood at 110%.

For “sense rUrArArCrGrGrCrUrArArUrGrGrUrCrGrArUrUdTdT / antisense rArArUrCrGrArCrCrArUrUrArGrCrCrGrUrUrAdGdG”, the normalised inhibition (eCFP-eYFP dual reporter) in data set [1] turned out to be 84%.

In the case of “sense rCrArArArUrArArGrCrUrUrUrArArGrGrCrArGdTdT / antisense rCrUrGrCrCrUrUrArArArGrCrUrUrArUrUrUrGdCdC”, the normalised inhibition (eCFP-eYFP dual reporter) in data set [1] turned out to be 56%.

“sense rGrArGrUrCrArGrArCrUrUrArArArCrCrArCrUdTdT / antisense rArGrUrGrGrUrUrUrArArGrUrCrUrGrArCrUrCdAdG”: the normalised inhibition (eCFP-eYFP dual reporter) in data set [1] is 88.7%.

In the case of “sense rArGrGrArArArGrArArGrArGrCrArCrUrUrGrCdTdT / antisense rGrCrArArGrUrGrCrUrCrUrUrCrUrUrUrCrCrUdCdA”, the normalised inhibition (eCFP-eYFP dual reporter) in data set [1] was 70.7%.

For “sense rArUrCrCrArGrGrGrCrCrArCrCrArGrCrCrArAdTdT / antisense rUrUrGrGrCrUrGrGrUrGrGrCrCrCrUrGrGrArUdTdA”, in data set [1], the normalised inhibition (eCFP-eYFP dual reporter) amounted to 76%.

For the substance “sense rUrGrCrCrArArCrArArArArGrGrArGrArGrGrGdTdT / antisense rCrCrCrUrCrUrCrCrUrUrUrUrGrUrUrGrGrCrAdTdA”, the normalised inhibition (eCFP-eYFP dual reporter) in data set [1] worked out at 28.7%.

Take “sense rCrArCrCrArGrCrCrArArGrArGrArCrArArCrCdTdT / antisense rGrGrUrUrGrUrCrUrCrUrUrGrGrCrUrGrGrUrGdGdC”: in data set [1], the normalised inhibition (eCFP-eYFP dual reporter) is 55.8%.

Consider “sense rUrGrGrUrGrGrGrUrCrArGrCrUrGrUrArCrUrGdTdT / antisense rCrArGrUrArCrArGrCrUrGrArCrCrCrArCrCrAdTdG”, for which the normalised inhibition (eCFP-eYFP dual reporter) in data set [1] was 83.4%.

With “sense rCrCrGrArUrUrUrUrGrArUrGrGrArGrGrArGrUdTdT / antisense rArCrUrCrCrUrCrCrArUrCrArArArArUrCrGrGdAdG”, in data set [1], the normalised inhibition (eCFP-eYFP dual reporter) was 48%.

In the case of “sense rUrUrCrCrArGrGrGrUrGrCrUrArCrGrGrCrCrAdTdT / antisense rUrGrGrCrCrGrUrArGrCrArCrCrCrUrGrGrArAdTdG”, the normalised inhibition (eCFP-eYFP dual reporter) in data set [1] was determined as 75.1%.

In the case of “sense rGrGrArGrArGrGrGrArGrCrCrArUrArGrGrUrUdTdT / antisense rArArCrCrUrArUrGrGrCrUrCrCrCrUrCrUrCrCdTdT”, the normalised inhibition (eCFP-eYFP dual reporter) in data set [1] was 61%.

“sense rArUrGrGrUrCrGrArUrUrUrGrArArGrUrGrGrGdTdT / antisense rCrCrCrArCrUrUrCrArArArUrCrGrArCrCrArUdTdA”: in data set [1], the normalised inhibition (eCFP-eYFP dual reporter) was found to be 56.3%.

As for “sense rArUrArUrArUrCrUrGrGrCrArArArCrGrArArUdTdT / antisense rArUrUrCrGrUrUrUrGrCrCrArGrArUrArUrArUdTdC”, in data set [1], the normalised inhibition (eCFP-eYFP dual reporter) came out at 95.9%.

As to “sense rGrCrCrUrUrUrArArArArUrCrUrGrGrArArGrCdTdT / antisense rGrCrUrUrCrCrArGrArUrUrUrUrArArArGrGrCdAdA”, in data set [1], the normalised inhibition (eCFP-eYFP dual reporter) was found to be 50.4%.

Consider “sense rUrArUrCrUrGrGrCrArArArCrGrArArUrArCrAdTdT / antisense rUrGrUrArUrUrCrGrUrUrUrGrCrCrArGrArUrAdTdA”, for which, in data set [1], the normalised inhibition (eCFP-eYFP dual reporter) was found to be 91.6%.

“sense rArUrUrUrArCrArArGrArUrGrArUrArUrArCrCdTdT / antisense rGrGrUrArUrArUrCrArUrCrUrUrGrUrArArArUdCdA”: the normalised inhibition (eCFP-eYFP dual reporter) in data set [1] stood at 47.6%.

For “sense rUrUrUrArUrCrArCrGrGrGrCrGrGrArUrArGrUdTdT / antisense rArCrUrArUrCrCrGrCrCrCrGrUrGrArUrArArAdCdT”, the normalised inhibition (eCFP-eYFP dual reporter) in data set [1] amounted to 51.8%.

For “sense rCrCrUrUrUrCrArUrCrArArCrCrUrArCrCrCrAdTdT / antisense rUrGrGrGrUrArGrGrUrUrGrArUrGrArArArGrGdAdT”, the normalised inhibition (eCFP-eYFP dual reporter) in data set [1] was determined as 56.2%.

Consider “sense rGrUrUrUrGrArGrCrArUrCrUrCrArGrGrCrCrAdTdT / antisense rUrGrGrCrCrUrGrArGrArUrGrCrUrCrArArArCdAdG”, for which the normalised inhibition (eCFP-eYFP dual reporter) in data set [1] was 72.6%.

For “sense rArUrCrArUrUrArCrCrArUrGrCrGrCrArGrCrCdTdT / antisense rGrGrCrUrGrCrGrCrArUrGrGrUrArArUrGrArUdCdT”, the normalised inhibition (eCFP-eYFP dual reporter) in data set [1] turned out to be 55.2%.

With “sense rArUrGrArArArCrCrArCrCrArArGrCrArUrUrAdTdT / antisense rUrArArUrGrCrUrUrGrGrUrGrGrUrUrUrCrArUdGdG”, the normalised inhibition (eCFP-eYFP dual reporter) in data set [1] stood at 68.1%.

Turning to “sense rArGrArGrArArGrGrUrUrGrUrCrUrArCrUrUrCdTdT / antisense rGrArArGrUrArGrArCrArArCrCrUrUrCrUrCrUdGdA”, the normalised inhibition (eCFP-eYFP dual reporter) in data set [1] stood at 78.8%.

Regarding “sense rUrUrGrCrCrUrUrUrArArArArUrCrUrGrGrArAdTdT / antisense rUrUrCrCrArGrArUrUrUrUrArArArGrGrCrArAdCdA”, the normalised inhibition (eCFP-eYFP dual reporter) in data set [1] was determined as 70.5%.

Take “sense rGrUrUrGrCrCrUrUrUrArArArArUrCrUrGrGrAdTdT / antisense rUrCrCrArGrArUrUrUrUrArArArGrGrCrArArCdAdG”: the normalised inhibition (eCFP-eYFP dual reporter) in data set [1] was 55.2%.

In the case of “sense rArCrArGrCrArUrUrArUrUrArGrCrCrArUrCrAdTdT / antisense rUrGrArUrGrGrCrUrArArUrArArUrGrCrUrGrUdCdC”, in data set [1], the normalised inhibition (eCFP-eYFP dual reporter) was determined as 54.7%.

Take “sense rUrCrUrGrUrUrUrGrArGrCrArUrCrUrCrArGrGdTdT / antisense rCrCrUrGrArGrArUrGrCrUrCrArArArCrArGrAdTdT”: the normalised inhibition (eCFP-eYFP dual reporter) in data set [1] worked out at 56%.

As for “sense rGrCrUrGrUrArCrUrGrArUrUrGrUrCrArUrCrCdTdT / antisense rGrGrArUrGrArCrArArUrCrArGrUrArCrArGrCdTdG”, the normalised inhibition (eCFP-eYFP dual reporter) in data set [1] is 62.4%.

Source of the values: the OligoGym collection.
